Experimental data from patent US9803220B2, “Production of alkenes from 3-hydroxy-1-carboxylic acids via 3-sulfonyloxy-1-carboxylic acids” (Scientist of Fortune S.A., priority 2012, dated 2017).

What was measured:
[1] = Thermal conversion of 3-sulfonyloxybutyrate to propylene, headspace GC-FID; type: physicochemical; conditions: 50 mM substrate, 50 mM Tris-HCl pH 7.5, 0 to 90 h
Method: The thermal conversion assays containing, in a total volume of 0.5 mL, 50 mM 3-sulfonyloxybutyrate and 50 mM Tris-HCl pH 7.5, were incubated in 2 ml sealed glass vials (Interchim) at 37° C. and 65° C. with shaking. Propylene production at different incubation times (from 0 to 90 h) was analyzed as follows. One ml of the gaseous phase was collected and injected into a gas chromatograph Varian 430-GC equipped with FID detector. Nitrogene was used as carrier gas with a flow rate of 1.5 ml/min. Volatile compounds were separated on RT-Alumina Bond/Na2SO4 column (Restek) using an isothermal mode at 130° C. Gaseous product of thermal decomposition of disodium (R,S)-3-sulfonyloxybutyrate was identified by comparison with propylene standard (Sigma, Aldrich). Under these GC conditions, the retention time for propylene was 3.2 min. […] (FIGS. 6 and 7).

[2] = test system: sulfotransferase CurM (PKS ST); experiment: Sulfotransferase activity assay, sulfurylation of 3-hydroxybutyrate with PAPS, MS detection; type: biochemical, Moorea producens (formerly Lyngbya majuscala) 19L; conditions: 5 mM (R,S)-3-hydroxybutyrate, 5 mM PAPS, 5 mg/ml enzyme, 1.5 hours at 37° C., pH 7.5
Description: Sequence of sulfotransferase domain of polyketide synthase CurM (PKS ST) inferred from the genome of Moorea producens (formerly Lyngbya majuscala) 19L was generated by oligonucleotide concatenation to fit the codon usage of E. coli. A stretch of 6 histidine codons was inserted after the methionine initiation codon to provide an affinity tag for purification. The gene thus synthesized was cloned in a pET25b(+) expression vector (the vectors were constructed by GENEART AG). After transformation of the E. coli strain BL21 (DE3), the protein was produced according to the procedure described in Example 1 and sulfotransferase activity was assayed under the following conditions
5 mM (R,S)-3-hydroxybutyrate
5 mg/ml purified sulfotransferase (ST) CurM.
Control reaction was performed using the same reaction mixture without addition of the enzyme. The assays were incubated for 1.5 hours at 37° C. An aliquot of 200 μl of each assay was then removed, filtered through a 0.45 μm filter and the filtrated solution was transferred into a clean vial. MS analyses were performed in negative electrospray mode by direct injection of sample using PE SCIEX API 2000 quadrupole instrument. The presence of 3-sulfonyloxybutyrate was evaluated. […] The peak at m/z=182.8 was assigned to mono-deprotonated form of 3-sulfonyloxybutyrate, [M-H]^−. […]

| SMILES | propylene production by thermal conversion ([1]; 37° C.) | propylene production by thermal conversion ([1]; 37° C., listed as sulfonylbutyrate) | propylene production by thermal conversion ([1]; 65° C.) | transfer of the sulfate group from PAPS onto hydroxyl group (formation of 3-sulfonyloxybutyrate) [2] |
| --- | --- | --- | --- | --- |
| CC(CC(=O)[O-])OS(=O)(=O)[O-].[Na+].[Na+] (racemic) [disodium (R,S)-3-sulfonyloxybutyrate, Disodium (R,S)-3-sulfonyloxybutyrate] | Significant production of propylene | already occurs | Significant production of propylene |  |
| CC(O)CC(=O)O (stereo not shown) [3-hydroxybutyrate] |  |  |  | catalyzes transfer of the sulfate group |
